From US12589087B2, “Enantiomer selective action on neurotransmission” (The Board of Trustees of the Leland Stanford Junior …, priority 2021, dated 2026)

Tests used:
[1] = Pharmacokinetics of 2MeGlu and 2MeGln in mice; format: in vivo; settings: 100 mg/kg IP, mouse brain; for time of peak brain concentration: for rac-2MeGln: 2MeGln
Description: C57BL/6 mice (Jackson Laboratory cat. no. 000664) were administered 100 mg/kg IP. […] Whole brain was promptly dissected and one half frozen at −80° C. until homogenization in ice cold PBS (pH 7.4) using a probe ultrasonic homogenizer (Branson Sonifier 450, Power: 5, Cycle: 30%, time: 10 s) on ice. The lysate was centrifuged (2,500 g for 15 min at 4° C.) and the supernatant was assayed using Pierce BCA Protein Assay Kit (23225) using BioTek Epoch plate spectrophotometer by recording absorbance at 562 nm. Two or three 10 μL aliquots of the homogenate were transferred to a 96 well plate and extracted with 190 μL of 60% acetonitrile in water containing 10 μM GABA-d6 or 10 μM Glu-d5 and Gln-d5 as internal standards. 40 μL aliquots of the extracts were then diluted with 120 μL of acetonitrile and prepared for LC-MS/MS analysis. Brain and serum half-lives were calculated using the ‘PKNCA’ package for R. Endogenous levels of Glu, Gln and GABA were determined in the brains of mice used in the pharmacokinetics experiment. MRM transitions specific for Glu, Gln and GABA were monitored simultaneously.

C57Bl/6 mice [2] = assay: Chronic dosing behavioral tests (activity chamber, elevated plus maze, Y maze, Morris water maze, fear conditioning); format: in vivo, mouse; settings: for body weight, activity chamber distance, elevated plus maze open arm time, Y maze alternation, Morris water maze learning / mortality: 10 mg/kg/day IP for a month; for fear conditioning, contextual recall on Day 2: 10 mg/kg/day IP, week 4
Description: Dosing: (R)-2MeGlu (10 mg/kg), (S)-2MeGlu (10 mg/kg), rac-2MeGln (10 mg/kg), and vehicle (PBS) were administered IP at 10 ml/kg dosing volume daily. The first dose was administered one week prior to behavioral tests and continued for four weeks during the behavioral testing.
Activity Chamber Open Field: The assessment took place in an Open Field Activity Arena as described above for 30 min. The Arena was cleaned with a 1% Virkon solution at the end of the trial. Activity chamber open field assessment was conducted after one week of exposure to compounds or vehicle.
Elevated Plus Maze: The maze was made of acrylonitrile butadiene styrene (ABS) plastic and had two open arms and two close arms that were 30 cm long and 5 cm wide. The center area where the open and close arms meet was 5 cm×5 cm. The open arms had 2 mm lips at the edges, and the closed arms had 15 cm opaque walls. The maze was elevated 50 cm and surrounded by privacy blinds during the test. The maze was illuminated to 7 lux using red light throughout the test. Each mouse was released in the center of the maze and given 5 min to explore the maze. Duration and frequency in each zone of the maze were recorded using Ethovision (Noldus Information Technology, Wageningen, the Netherlands) tracking software. The maze was cleaned with a 1% Virkon solution at the end of the trial. Elevated plus maze was conducted after one week of exposure to compounds or vehicle.
Y Maze Spontaneous Alternation: The Y maze is made of plastic with 3 arms in a “Y” shape. The arms are labelled as Arm A, B, and C; Arm A is 20.32 cm (L)×5 cm (W) 12.7 cm (H), Arm B and C are 15.24 cm (L)×5 cm (W), and 12.7 cm (H). The test is based on the willingness of rodents to explore a novel environment and designed to measure spontaneous alternations in rodents. Each mouse was placed in the center of the maze facing Arm B. The first entry was excluded from data analysis because the animals were led to the initial arm entry by the experimenter. Using an overhead camera, the number of arm entries and alternations were recorded for 5 minutes. An arm entry is when all four paws enter into a new arm of the maze. The apparatus was cleaned with 1% Virkon. Parameters recorded were % alternation and the total number of entries into arms. The Y maze test was conducted after two weeks of exposure to compounds or vehicle.
Morris Water Maze: During the Hidden Platform Training (HPT), mice were given 2 trials, with 1-minute inter-trial-intervals (ITIs) in a circular water tank (172 cm diameter) filled with opaque water at 22.0±1.5° C. Nontoxic tempera paint was used to make the water opaque. A circular platform (17 cm diameter) was submerged 1 cm below the water's surface and placed in one of the four quadrants of the pool (Quadrant 2). The release locations into the pool were randomly chosen to prevent spatial bias and the platform was also relocated during reversal training. We conducted 3 days of training with 2 trials each day for a total of the 6 trials prior to probe 1 (Days 1 to 3). Specifically, mice were given a maximum of 60 s to find the submerged platform per trial. […] After remaining on the platform for 15 s, mice were removed from the platform and placed in a dry cage with a paper towel. This process was repeated for 3 days. On the following day (˜24 hours after the last training trial), the platform was removed from the pool, and a 60 s probe trial was conducted. After acquiring the data for the probe trial, the platform was replaced at the same location, and the mice were given additional two trials of training. Three days (˜72 hours) after the last training trial, a second probe trial was conducted. The platform was relocated to a new quadrant (Quadrant 4) after the second probe trial, and the animals were trained in Reversal Hidden Platform Training (RHPT). The procedures for RHPT were identical to HPT and were conducted for 3 days (Days 7 to 9). A third probe trial was conducted on the following day (˜24 hr). […]

C57Bl/6 mice [3] = format: in vivo; settings: for distance moved in the novel cage: single 100, 300, or 900 mg/kg IP, dose- and time-dependent
Description: Dosing: (R)-2MeGlu (30, 100, 300, or 900 mg/kg), (S)-2MeGlu (30, 100, 300, or 900 mg/kg), rac-2MeGln (30, 100, 300, or 900 mg/kg) and vehicle (PBS) were administered at 10 ml/kg IP dosing volume. Three mice were dosed once with the assigned drug (100, 300, or 900 mg/kg) or vehicle and immediately placed in a new cage for novel cage observation. Subsequently, six mice were dosed once with the assigned drug (30 or 100 mg/kg) or vehicle and tested by SHIRPA, activity chamber, and then hot plate tests.
The mouse was dosed and immediately placed in the center of a clean, Innovive disposable rat cage with bedding (dimensions: 17″L×13.4″W×7.8″H) and allowed to move freely while being tracked automatically. Mice were monitored with Ethovision XT tracking software for the distance moved and average velocity during the 60-minute trial. They were returned to their home cage after the test. A new cage was used for each mouse.
Exploratory behavioral tests were performed exactly as previously described by us using 2-month-old C57Bl/6 male mice, Example 1. First, we assessed safety and tolerability of acute exposure to 4APA enantiomers in 22 mice by novel cage observation at 100, 300, or 900 mg/kg IP compared to vehicle (PBS) IP (n=3 or 4 mice per group without sample calculation, based on our previous study. Next, we evaluated 24 drug naïve mice with a 23-measure battery of neurologic dysfunction in mice (SHIRPA) (Rogers et al., 2001), automated activity chamber assessment, and hot plate latency acutely following 30 or 100 mg/kg IP compared to vehicle IP (n=4 or 5 mice per group). No exclusion criteria were predetermined and no randomization was performed to allocate subjects in the study.

In the case of `CC(N)(CCC(N)=O)C(=O)O` (racemic) [rac-2MeGln, rac-2-methylglutamine], the “time of peak brain concentration” value [1] is reported as 25 min, the “body weight, activity chamber distance, elevated plus maze open arm time, Y maze alternation, Morris water maze learning” value (from here on “body weight, activity chamber distance”) (C57Bl/6 mice [2]) is reported as “no significant effect of treatment” and the mortality (C57Bl/6 mice [2]) is reported as “no mortality”. The “fear conditioning, contextual recall on Day 2” value (shortened to “fear conditioning”) (C57Bl/6 mice [2]) was “no significant effect of treatments”.
For `C[C@@](N)(CCC(=O)O)C(=O)O` [(R)-2MeGlu, (R)-2-methylglutamic acid], the maximum brain concentration [1] was 30 pmol/mg protein, the “time of peak brain concentration” value [1] was at most 5 min and the half-life ([1]; C57BL/6) was about 1.17 h. For the same compound, the “mortality after single dose” value (C57Bl/6 mice [3]; mouse, in vivo) was “one mouse died”, the “distance moved in the novel cage” value (C57Bl/6 mice [3]) was “significantly decreased” and the “body weight, activity chamber distance” value (C57Bl/6 mice [2]) was “no significant effect of treatment”. For the same compound, the mortality (C57Bl/6 mice [2]) was “no mortality” and the “fear conditioning” value (C57Bl/6 mice [2]) was “no significant effect of treatments”.
With `C[C@](N)(CCC(=O)O)C(=O)O` [(S)-2MeGlu, (S)-2-methylglutamic acid] the maximum brain concentration [1] was 50 pmol/mg protein, the “time of peak brain concentration” value [1] was 25 min and the “distance moved in the novel cage” value (C57Bl/6 mice [3]) was “significantly decreased”. For the same compound, the “body weight, activity chamber distance” value (C57Bl/6 mice [2]) was “no significant effect of treatment”, the mortality (C57Bl/6 mice [2]) was “no mortality” and the “fear conditioning” value (C57Bl/6 mice [2]) was “no significant effect of treatments”.
